ChEMBL document CHEMBL5291721, “A preclinical secondary pharmacology resource illuminates target-adverse drug reaction associations of marketed drugs” (Nat Commun, 2023)

Columns and labels:
[1] = target: T1, 5-hydroxytryptamine receptor 2B (Homo sapiens, UniProt P41595); assay type: functional, cell-based
[2] = target: T2, Equilibrative nucleoside transporter 1 (Homo sapiens, UniProt Q99808)
T2 sequence (Q99808 whole entry): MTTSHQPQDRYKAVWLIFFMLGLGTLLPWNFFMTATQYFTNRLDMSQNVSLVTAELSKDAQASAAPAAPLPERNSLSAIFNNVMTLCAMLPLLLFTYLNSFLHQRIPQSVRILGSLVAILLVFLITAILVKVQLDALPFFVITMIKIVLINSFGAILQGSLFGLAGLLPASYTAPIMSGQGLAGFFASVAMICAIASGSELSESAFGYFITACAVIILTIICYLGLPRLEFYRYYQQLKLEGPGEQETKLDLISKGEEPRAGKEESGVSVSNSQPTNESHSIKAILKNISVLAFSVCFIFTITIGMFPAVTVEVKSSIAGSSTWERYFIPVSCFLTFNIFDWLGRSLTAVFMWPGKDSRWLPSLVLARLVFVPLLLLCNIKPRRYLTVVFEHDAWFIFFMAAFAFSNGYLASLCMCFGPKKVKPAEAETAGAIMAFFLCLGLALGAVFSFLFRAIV

[3] = target: Voltage-dependent L-type calcium channel subunit alpha-1C (Rattus norvegicus, UniProt P22002); assay type: functional
Sequence of Voltage-dependent L-type calcium channel subunit alpha-1C (P22002 whole entry): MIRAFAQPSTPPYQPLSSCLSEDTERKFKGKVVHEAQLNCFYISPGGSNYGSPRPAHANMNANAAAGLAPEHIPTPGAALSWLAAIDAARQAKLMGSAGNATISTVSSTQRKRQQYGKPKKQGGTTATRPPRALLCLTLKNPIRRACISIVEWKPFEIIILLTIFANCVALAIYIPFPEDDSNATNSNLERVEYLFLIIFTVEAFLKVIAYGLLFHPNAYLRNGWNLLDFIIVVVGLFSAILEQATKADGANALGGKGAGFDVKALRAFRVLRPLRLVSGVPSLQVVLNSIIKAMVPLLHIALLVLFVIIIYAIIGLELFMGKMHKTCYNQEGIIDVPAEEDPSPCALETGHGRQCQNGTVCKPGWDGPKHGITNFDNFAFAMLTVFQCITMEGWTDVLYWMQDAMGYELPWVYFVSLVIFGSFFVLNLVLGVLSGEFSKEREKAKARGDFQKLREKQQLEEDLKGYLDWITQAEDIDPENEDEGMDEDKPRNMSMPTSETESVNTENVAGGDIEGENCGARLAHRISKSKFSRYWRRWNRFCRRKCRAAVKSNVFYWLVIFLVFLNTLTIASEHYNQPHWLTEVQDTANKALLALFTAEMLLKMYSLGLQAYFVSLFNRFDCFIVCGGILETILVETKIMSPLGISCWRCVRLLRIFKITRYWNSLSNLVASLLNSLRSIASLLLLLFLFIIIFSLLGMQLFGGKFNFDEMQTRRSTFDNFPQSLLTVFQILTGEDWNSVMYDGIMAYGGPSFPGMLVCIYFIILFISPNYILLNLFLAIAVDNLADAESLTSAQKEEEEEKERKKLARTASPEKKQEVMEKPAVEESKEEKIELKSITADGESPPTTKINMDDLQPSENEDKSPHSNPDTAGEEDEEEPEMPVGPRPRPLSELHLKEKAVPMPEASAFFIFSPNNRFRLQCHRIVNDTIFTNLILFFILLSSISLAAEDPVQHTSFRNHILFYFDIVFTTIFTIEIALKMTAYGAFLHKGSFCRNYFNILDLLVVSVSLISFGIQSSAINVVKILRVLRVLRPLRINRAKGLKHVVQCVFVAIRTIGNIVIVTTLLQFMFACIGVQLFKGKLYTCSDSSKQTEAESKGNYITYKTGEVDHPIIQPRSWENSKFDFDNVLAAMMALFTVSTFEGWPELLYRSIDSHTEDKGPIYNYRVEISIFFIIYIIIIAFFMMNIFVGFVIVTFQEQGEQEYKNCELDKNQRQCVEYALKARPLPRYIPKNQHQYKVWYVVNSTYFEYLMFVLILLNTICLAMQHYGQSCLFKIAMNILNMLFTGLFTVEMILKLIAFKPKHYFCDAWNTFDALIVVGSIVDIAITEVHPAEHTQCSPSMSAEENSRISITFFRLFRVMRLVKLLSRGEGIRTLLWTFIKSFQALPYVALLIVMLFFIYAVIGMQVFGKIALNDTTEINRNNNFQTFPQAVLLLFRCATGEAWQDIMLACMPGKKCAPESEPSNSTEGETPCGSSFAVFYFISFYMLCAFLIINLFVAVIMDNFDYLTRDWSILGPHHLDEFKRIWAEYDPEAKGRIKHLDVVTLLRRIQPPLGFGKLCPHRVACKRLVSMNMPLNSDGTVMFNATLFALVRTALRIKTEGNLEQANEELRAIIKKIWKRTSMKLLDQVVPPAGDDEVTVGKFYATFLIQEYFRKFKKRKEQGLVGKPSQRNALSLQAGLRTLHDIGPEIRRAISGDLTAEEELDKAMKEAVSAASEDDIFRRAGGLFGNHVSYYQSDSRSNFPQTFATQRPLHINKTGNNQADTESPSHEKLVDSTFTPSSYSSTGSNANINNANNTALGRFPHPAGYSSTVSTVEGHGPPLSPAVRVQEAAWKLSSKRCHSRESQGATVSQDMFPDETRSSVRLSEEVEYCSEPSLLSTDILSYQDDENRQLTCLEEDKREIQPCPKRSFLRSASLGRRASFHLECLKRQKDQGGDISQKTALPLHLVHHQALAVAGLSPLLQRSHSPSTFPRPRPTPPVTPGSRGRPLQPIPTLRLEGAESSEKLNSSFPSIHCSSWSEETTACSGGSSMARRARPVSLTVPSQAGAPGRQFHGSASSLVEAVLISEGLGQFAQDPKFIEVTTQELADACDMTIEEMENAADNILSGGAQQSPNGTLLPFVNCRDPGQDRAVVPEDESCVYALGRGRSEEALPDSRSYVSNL

[4] = target: T3, Cannabinoid receptor 1 (Homo sapiens, UniProt P21554); assay type: functional, cell-based
T3 sequence (P21554 whole entry): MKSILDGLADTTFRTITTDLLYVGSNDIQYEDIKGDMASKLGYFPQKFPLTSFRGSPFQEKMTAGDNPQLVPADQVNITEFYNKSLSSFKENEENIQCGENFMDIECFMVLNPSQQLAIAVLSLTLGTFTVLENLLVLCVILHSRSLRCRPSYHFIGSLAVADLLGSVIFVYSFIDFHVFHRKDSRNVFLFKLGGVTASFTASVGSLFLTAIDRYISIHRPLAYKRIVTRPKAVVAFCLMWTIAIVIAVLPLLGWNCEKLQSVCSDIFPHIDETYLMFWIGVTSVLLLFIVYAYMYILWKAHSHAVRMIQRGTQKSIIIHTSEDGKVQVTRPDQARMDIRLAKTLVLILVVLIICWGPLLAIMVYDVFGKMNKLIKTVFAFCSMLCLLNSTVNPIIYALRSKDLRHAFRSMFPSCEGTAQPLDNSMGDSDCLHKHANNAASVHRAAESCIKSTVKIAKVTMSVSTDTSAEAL

[5] = target: T4, 5-hydroxytryptamine receptor 1A (Homo sapiens, UniProt P08908); assay type: functional, cell-based
T4 sequence (P08908 whole entry): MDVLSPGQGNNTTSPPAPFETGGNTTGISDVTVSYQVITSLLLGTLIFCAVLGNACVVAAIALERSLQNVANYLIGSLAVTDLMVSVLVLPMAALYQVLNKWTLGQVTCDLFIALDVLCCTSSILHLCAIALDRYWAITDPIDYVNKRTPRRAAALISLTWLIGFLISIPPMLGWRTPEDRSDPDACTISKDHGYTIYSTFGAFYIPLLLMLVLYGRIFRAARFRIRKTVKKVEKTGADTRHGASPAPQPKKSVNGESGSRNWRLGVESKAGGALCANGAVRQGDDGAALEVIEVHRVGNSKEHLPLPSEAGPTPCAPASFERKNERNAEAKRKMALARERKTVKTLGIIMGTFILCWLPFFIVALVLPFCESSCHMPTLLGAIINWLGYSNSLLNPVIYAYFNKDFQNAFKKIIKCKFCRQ

[6] = target: Mu-type opioid receptor (Homo sapiens, UniProt P35372); experiment: biochemical; assay type: functional
Sequence of Mu-type opioid receptor (P35372 whole entry): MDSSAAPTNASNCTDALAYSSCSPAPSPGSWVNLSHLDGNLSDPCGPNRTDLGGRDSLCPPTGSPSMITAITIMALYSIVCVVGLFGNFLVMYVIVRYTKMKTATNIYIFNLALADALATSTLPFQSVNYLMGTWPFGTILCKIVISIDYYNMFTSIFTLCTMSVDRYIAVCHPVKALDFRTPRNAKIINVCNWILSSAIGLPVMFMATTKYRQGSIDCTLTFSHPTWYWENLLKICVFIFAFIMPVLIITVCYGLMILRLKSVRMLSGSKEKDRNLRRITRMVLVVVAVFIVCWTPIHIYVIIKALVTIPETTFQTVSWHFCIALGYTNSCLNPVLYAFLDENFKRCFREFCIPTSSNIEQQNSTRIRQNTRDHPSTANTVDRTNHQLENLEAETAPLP

[7] = target: T5, Adenosine receptor A3 (Homo sapiens, UniProt P0DMS8)
T5 sequence (P0DMS8 whole entry): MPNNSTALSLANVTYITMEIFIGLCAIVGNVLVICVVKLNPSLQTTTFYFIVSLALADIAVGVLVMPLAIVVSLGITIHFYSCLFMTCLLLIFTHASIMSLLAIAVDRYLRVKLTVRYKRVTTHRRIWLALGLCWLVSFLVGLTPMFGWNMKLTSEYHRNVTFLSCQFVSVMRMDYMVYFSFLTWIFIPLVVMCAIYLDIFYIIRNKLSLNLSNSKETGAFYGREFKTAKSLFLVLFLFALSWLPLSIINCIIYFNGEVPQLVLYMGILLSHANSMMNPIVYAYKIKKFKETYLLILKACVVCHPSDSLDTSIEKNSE

[8] = target: 3',5'-cyclic-AMP phosphodiesterase 4D (Homo sapiens, UniProt Q08499); assay type: functional
Sequence of 3',5'-cyclic-AMP phosphodiesterase 4D (Q08499 whole entry): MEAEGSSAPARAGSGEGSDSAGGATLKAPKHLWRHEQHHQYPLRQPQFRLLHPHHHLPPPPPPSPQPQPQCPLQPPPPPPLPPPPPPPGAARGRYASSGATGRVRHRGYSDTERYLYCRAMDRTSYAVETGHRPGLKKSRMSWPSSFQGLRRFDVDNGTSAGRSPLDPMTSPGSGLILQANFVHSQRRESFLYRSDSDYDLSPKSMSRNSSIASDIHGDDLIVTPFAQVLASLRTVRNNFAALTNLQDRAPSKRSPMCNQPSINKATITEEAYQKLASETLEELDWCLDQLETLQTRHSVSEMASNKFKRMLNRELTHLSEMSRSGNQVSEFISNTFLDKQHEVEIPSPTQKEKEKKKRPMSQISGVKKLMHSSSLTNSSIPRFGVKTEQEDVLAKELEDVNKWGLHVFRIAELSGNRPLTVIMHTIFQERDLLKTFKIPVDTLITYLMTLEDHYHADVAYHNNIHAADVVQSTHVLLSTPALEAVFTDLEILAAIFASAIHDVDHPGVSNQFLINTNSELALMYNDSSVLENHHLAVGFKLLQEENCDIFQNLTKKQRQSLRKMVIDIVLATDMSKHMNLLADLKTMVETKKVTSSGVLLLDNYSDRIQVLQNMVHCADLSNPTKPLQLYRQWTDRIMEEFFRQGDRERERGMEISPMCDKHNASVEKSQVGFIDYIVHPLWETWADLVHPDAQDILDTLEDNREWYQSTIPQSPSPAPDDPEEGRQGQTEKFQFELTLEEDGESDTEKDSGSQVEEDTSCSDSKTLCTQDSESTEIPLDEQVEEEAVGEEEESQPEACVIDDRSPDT

[9] = target: Vasopressin V2 receptor (Homo sapiens, UniProt P30518)
Sequence of Vasopressin V2 receptor (P30518 whole entry): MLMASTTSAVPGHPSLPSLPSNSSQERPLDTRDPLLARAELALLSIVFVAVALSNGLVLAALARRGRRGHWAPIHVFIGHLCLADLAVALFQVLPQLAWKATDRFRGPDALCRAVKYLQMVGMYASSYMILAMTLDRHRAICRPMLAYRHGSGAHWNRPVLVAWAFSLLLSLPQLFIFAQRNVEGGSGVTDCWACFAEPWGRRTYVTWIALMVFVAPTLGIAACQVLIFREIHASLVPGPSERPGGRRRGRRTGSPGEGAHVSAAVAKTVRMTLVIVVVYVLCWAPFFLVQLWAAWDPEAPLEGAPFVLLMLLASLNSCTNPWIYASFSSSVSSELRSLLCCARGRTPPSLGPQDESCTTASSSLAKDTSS

[10] = target: Glutamate receptor ionotropic, NMDA 1 (Rattus norvegicus, UniProt P35439)
[11] = target: Growth hormone secretagogue receptor type 1 (Homo sapiens, UniProt Q92847)
Sequence of Growth hormone secretagogue receptor type 1 (Q92847 whole entry): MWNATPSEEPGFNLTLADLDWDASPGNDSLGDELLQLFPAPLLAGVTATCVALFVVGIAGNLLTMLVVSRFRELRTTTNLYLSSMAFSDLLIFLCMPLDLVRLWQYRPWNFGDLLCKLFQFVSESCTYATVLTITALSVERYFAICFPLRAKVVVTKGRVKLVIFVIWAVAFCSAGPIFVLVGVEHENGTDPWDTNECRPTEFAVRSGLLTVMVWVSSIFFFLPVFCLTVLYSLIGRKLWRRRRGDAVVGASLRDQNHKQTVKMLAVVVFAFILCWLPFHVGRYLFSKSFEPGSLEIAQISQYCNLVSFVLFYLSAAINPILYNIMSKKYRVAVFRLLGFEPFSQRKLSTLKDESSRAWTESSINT

[12] = target: T1, 5-hydroxytryptamine receptor 2B; assay type: functional, cell-based; remark: listed apart in the source
[13] = target: T6, Endothelin-1 receptor (Homo sapiens, UniProt P25101)
T6 sequence (P25101 whole entry): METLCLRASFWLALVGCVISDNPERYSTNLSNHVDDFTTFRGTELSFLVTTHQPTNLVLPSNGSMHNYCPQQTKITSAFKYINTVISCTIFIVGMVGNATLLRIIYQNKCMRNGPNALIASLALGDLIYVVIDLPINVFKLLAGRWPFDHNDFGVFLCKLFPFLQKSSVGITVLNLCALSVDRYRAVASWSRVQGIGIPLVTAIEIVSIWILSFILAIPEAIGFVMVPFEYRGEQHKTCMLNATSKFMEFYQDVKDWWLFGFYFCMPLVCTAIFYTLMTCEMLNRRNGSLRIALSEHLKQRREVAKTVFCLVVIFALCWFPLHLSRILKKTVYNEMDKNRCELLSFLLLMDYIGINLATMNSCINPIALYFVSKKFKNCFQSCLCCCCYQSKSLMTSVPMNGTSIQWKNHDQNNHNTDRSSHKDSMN

[14] = target: T4, 5-hydroxytryptamine receptor 1A; assay type: functional, cell-based; remark: listed apart in the source
[15] = target: T3, Cannabinoid receptor 1; assay type: functional, cell-based; remark: listed apart in the source
[16] = target: Sodium-dependent serotonin transporter (Homo sapiens, UniProt P31645)
[17] = target: T7, Muscarinic acetylcholine receptor M1 (Homo sapiens, UniProt P11229); assay type: functional
T7 sequence (P11229 whole entry): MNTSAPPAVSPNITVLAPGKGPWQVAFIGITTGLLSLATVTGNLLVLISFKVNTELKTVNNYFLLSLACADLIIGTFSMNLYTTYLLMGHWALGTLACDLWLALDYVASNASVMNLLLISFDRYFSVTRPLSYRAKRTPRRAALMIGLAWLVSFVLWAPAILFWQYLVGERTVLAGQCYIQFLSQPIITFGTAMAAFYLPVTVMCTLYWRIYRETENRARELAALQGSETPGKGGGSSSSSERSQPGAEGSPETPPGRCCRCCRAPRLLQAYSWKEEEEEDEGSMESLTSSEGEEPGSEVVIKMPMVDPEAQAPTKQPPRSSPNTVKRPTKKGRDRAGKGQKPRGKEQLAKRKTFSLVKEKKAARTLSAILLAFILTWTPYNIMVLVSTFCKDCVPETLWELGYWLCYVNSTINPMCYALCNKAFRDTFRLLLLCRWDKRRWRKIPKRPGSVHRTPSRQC
Also: assay procedure not described here.

T1 sequence (P41595 whole entry): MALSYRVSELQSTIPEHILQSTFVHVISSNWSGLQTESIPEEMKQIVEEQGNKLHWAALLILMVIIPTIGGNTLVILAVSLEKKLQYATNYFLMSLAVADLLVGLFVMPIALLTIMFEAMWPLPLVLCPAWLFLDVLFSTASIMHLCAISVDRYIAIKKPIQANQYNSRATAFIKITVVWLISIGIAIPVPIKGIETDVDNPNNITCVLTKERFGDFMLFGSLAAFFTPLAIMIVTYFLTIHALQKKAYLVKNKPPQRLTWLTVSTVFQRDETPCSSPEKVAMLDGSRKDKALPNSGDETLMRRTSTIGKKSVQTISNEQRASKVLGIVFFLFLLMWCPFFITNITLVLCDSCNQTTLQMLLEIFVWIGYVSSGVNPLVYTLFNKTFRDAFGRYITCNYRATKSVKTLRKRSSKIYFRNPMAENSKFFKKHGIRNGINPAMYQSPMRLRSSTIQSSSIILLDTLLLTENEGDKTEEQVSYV

## CCCCCN(C)CCC(O)(P(=O)(O)O)P(=O)(O)O [IBANDRONIC ACID]
[1]
  AC50: > 30 µM
[2]
  AC50: > 30 µM
[3]
  AC50: > 30 µM
[4]
  AC50: > 30 µM
[5]
  AC50: > 10 µM
[6]
  AC50: 8.5 µM
[7]
  AC50: > 30 µM
[8]
  AC50: > 30 µM
[9]
  AC50: > 30 µM
[10]
  AC50: > 30 µM
[11]
  AC50: > 30 µM
[12]
  AC50: > 30 µM
[13]
  AC50: > 30 µM
[14]
  AC50: > 30 µM
[15]
  AC50: > 30 µM
[16]
  AC50: > 30 µM
[17]
  AC50: > 30 µM

## C1=Cc2cccc(OCC3CNCCO3)c2C1 (stereo unspecified) [INDELOXAZINE]
[1]
  AC50: 5.3 µM
[2]
  AC50: > 30 µM
[3]
  AC50: > 30 µM
[4]
  AC50: > 30 µM
[5]
  AC50: > 30 µM
[6]
  AC50: > 30 µM
[7]
  AC50: > 30 µM
[8]
  AC50: > 30 µM
[9]
  AC50: > 30 µM
[10]
  AC50: > 30 µM
[11]
  AC50: > 30 µM
[12]
  AC50: > 30 µM
[13]
  AC50: > 30 µM
[14]
  AC50: > 30 µM
[15]
  AC50: > 30 µM
[16]
  AC50: 0.047 µM
[17]
  AC50: > 30 µM

## C#C[C@]1(O)CC[C@H]2[C@@H]3CCC4=CCCC[C@@H]4[C@H]3CC[C@@]21C [LYNESTRENOL]
[1]
  AC50: > 30 µM
[2]
  AC50: > 30 µM
[3]
  AC50: > 30 µM
[4]
  AC50: > 30 µM
[5]
  AC50: > 30 µM
[6]
  AC50: > 30 µM
[7]
  AC50: > 30 µM
[8]
  AC50: > 30 µM
[9]
  AC50: > 30 µM
[10]
  AC50: > 30 µM
[11]
  AC50: > 30 µM
[12]
  AC50: > 30 µM
[13]
  AC50: > 30 µM
[14]
  AC50: > 30 µM
[15]
  AC50: > 30 µM
[16]
  AC50: > 30 µM
[17]
  AC50: > 30 µM
